In PMC12340639 (ACS Pharmacology & Translational Science, 2025):

System: ER-positive MCF7 human breast cancer cells
Test: MCF7 cell proliferation assay
Format: cell-based
Details: MCF7, 120 h, read-out: Cell Proliferation EC50

EC50: 3.2 pM
SMILES: C[C@]12CC[C@@H]3c4ccc(O)cc4CC[C@H]3[C@@H]1CC[C@@H]2O [E2, 17β-estradiol]
